The results in this text go back to ChEMBL document CHEMBL5226292, “Nonpungent N-AVAM Capsaicin Analogues and Cancer Therapy” (J Med Chem, 2021).

The structures appear in SMILES notation. ≈ marks a conversion by molar mass, not a printed value. Some results are limits rather than exact numbers.

One series deals with P388. The series is described as follows: Antiproliferative activity in mouse P388 cells assessed as cell growth inhibition by MTT assay. In kind it is functional, cell-based.
Series [1] can be described thus: Antiproliferative activity in human Cervical carcinoma cell assessed as cell growth inhibition. The class given is functional, cell-based.
The next series relates to Ca-Ski. Briefly: Antiproliferative activity in human Ca-Ski cells assessed as cell growth inhibition. In kind it is functional, cell-based.
In a further series the test system is J774. The series is described as follows: Antiproliferative activity in mouse J774 cells assessed as cell growth inhibition. The class given is functional, cell-based.
Series [2] is described as follows: Antiproliferative activity in mouse WEHI-3 cells assessed as cell growth inhibition. The class given is functional, cell-based.
Series [3] in a line: Cytotoxicity against human Bone marrow cell assessed as cell growth inhibition. In kind it is toxicity, cell-based. The settings on record: bone marrow cells.
A further series deals with DMS-114. Briefly: Antiproliferative activity in human DMS-114 cells assessed as cell growth inhibition by MTT assay. The class given is functional, cell-based. (Tetrazolium dyes change colour on reduction, which living cells bring about.)
In the next series the test system is T47D. The series is described as follows: Antiproliferative activity in human T47D cells assessed as cell growth inhibition by MTT assay. In kind it is functional, cell-based.
Another series relates to MCF7. The series is described as follows: Antiproliferative activity in human MCF7 cells assessed as cell growth inhibition by MTT assay. The class given is functional, cell-based.
The test system of another series is C6. The series is described as follows: Antiproliferative activity against rat C6 cells assessed as inhibition of cell growth at 10 uM relative to control. In kind it is functional. Details: scale not given: the % may be the effect or the level left.
For another series, the system named is EFM-19. Briefly: Antiproliferative activity in human EFM-19 cells assessed as cell growth inhibition by MTT assay. The class given is functional, cell-based.
Series [4] in a line: Induction of apoptosis in human PBMC cells. In kind it is functional.
Another series deals with PPC-1. Briefly: Antiproliferative activity in human PPC-1 cells assessed as cell growth inhibition. In kind it is functional, cell-based.
The subject of a further series is TSU. Briefly: Antiproliferative activity in human TSU cells assessed as cell growth inhibition. In kind it is functional, cell-based.
Series [5] in a line: Drug concentration in rat enterocytes measured after 30 to 60 mins relative to control.
Series [6] can be described thus: AUC in po dosed mouse. In kind it is ADME, organism-based. Details: route po. The settings on record: in vivo.
Series [7] is described as follows: AUC in sc dosed mouse. The class given is ADME, organism-based. Details: route sc. As to conditions: in vivo.
The nature of series [8]: Drug concentration in Sprague-Dawley rat hepatocytes measured after 30 mins relative to control. The class given is ADME, cell-based, Hepatocyte. The settings on record: 0.5 h.

For the compound `CCCCCC[C@@H](C/C=C\CCCCCCCC(=O)NCc1ccc(O)c(OC)c1)OC(=O)Cc1ccccc1`, the IC50 with P388 was found to be 49 µg/mL (≈ 88.8 µM); in [1] it was 74 µg/mL (≈ 134 µM); in the series on Ca-Ski, 122 µg/mL (≈ 221 µM); in the series with J774, 10 µg/mL (≈ 18.1 µM); in series [2], 31 µg/mL (≈ 56.2 µM); in series [3], 73 µg/mL (≈ 132 µM).
With `CC/C=C\C/C=C\C/C=C\CCCCCCCC(=O)NCc1ccc(O)c(OC)c1`, in the series with DMS-114, the IC50 amounted to 15000 nM.
For `CCCCCC[C@H](O)C/C=C\CCCCCCCC(=O)NCc1ccc(O)c(OC)c1`, the IC50 in the series on P388 was 9 µg/mL (≈ 20.8 µM); in series [1], 149 µg/mL (≈ 344 µM); with J774, 8 µg/mL (≈ 18.4 µM); in series [2] it was 3 µg/mL (≈ 6.92 µM); in series [3], 40 µg/mL (≈ 92.2 µM).
Turning to `COc1cc(CNC(=O)CCCC/C=C/C(C)C)ccc1O` [CAPSAICIN], the IC50 in the series with T47D and in the series on MCF7 was 100000 nM each time. Besides, the Activity with C6 was found to be 20%.
On to `CCCCC/C=C\C/C=C\CCCCCCCC(=O)NCc1ccc(O)c(OC)c1`, for which the IC50 in the series on DMS-114 worked out at 43000 nM.
With `CCCCCCCCCCCCCCCC(=O)NCc1ccc(O)c(OC)c1`, the IC50 in the series on T47D came out at 1600 nM; in the series with EFM-19, 1000 nM; in the series with MCF7, 2200 nM.
In the case of `CCCCC/C=C\C/C=C\C/C=C\C/C=C\CCCC(=O)NCc1ccc(O)c(OC)c1`, the Activity in series [4] came to 60%. Also, the IC50 in the series on DMS-114 was determined as 15000 nM; in the series with PPC-1, 1000 nM; in the series on TSU, 100 nM; in the series on T47D, 350 nM; with EFM-19, 550 nM; in the series with MCF7, 400 nM.
Take `CCCCCCCC/C=C\CCCCCCCC(=O)NCc1ccc(O)c(OC)c1` [OLVANIL]: the figures for the Activity (in [4]; with C6) were 20.5% and 95%, respectively. Also, the IC50 in the series with DMS-114 was > 50000 nM; in the series with T47D, 750 nM; in the series with EFM-19 it was 700 nM; in the series with MCF7, 1000 nM. Besides, the Drug uptake in series [5] came out at 1%; in series [8], 4%. The AUC in series [6] came out at 0.1 µg·h/g; in series [7], 8 µg·h/g.

The term IC50 denotes the concentration at which inhibition is half-maximal.
